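Where inhibition never reached the appropriate level, the endpoint shown equals the highest concentration tested. Otherwise, values were interpolated linearly from a five-concentration, 48-hour dose response in 96-well plates. Abbreviation: GI50, concentration required for 50% inhibition of growth. TGI: concentration producing complete growth inhibition.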 Bounds are passed on as bounds.

Data on 15 compounds can be found in PubChem BioAssay (NCI).

Test systems include CAKI-1 renal; HCC-2998 colon; HCT-15 colon; HS 578T breast; IGROV1 ovarian; NCI-H460 lung; NCI/ADR-RES ovarian; PC-3 prostate; SK-OV-3 ovarian; UACC-62 melanoma.
Assay in all cases: inhibition of tumour cell growth, NCI panel, 48 h

As for `Nc1nc(Cl)cc(Oc2ccc(Cl)cc2)n1`, the TGI with CAKI-1 renal, in the assay with HCC-2998 colon, in the assay with HCT-15 colon, in the assay with HS 578T breast, with IGROV1 ovarian and in the assay with NCI-H460 lung was > 100 µM throughout. Also, the TGI with NCI/ADR-RES ovarian, in the assay with PC-3 prostate, with SK-OV-3 ovarian and with UACC-62 melanoma was > 100 µM throughout.
Take `CCCN1CCN(c2ccc3nc(-c4ccc5nc(-c6ccc(OCC)cc6)[nH]c5c4)[nH]c3c2)CC1`: the GI50 with HS 578T breast was 3.59 µM; in the assay with NCI/ADR-RES ovarian, 2.84 µM; in the assay with SK-OV-3 ovarian it was 1.33 µM; in the assay with UACC-62 melanoma, 1.07 µM. Also, the TGI in the assay with HS 578T breast was 50.1 µM; with NCI/ADR-RES ovarian it was > 100 µM; with SK-OV-3 ovarian, 3.37 µM; in the assay with UACC-62 melanoma it was 26.7 µM.
For the compound `N#Cc1ccccc1C#C/C=C\C#Cc1ccccn1`, the TGI in the assay on CAKI-1 renal stood at 83.1 µM; with HCC-2998 colon, 27.6 µM; in the assay on HCT-15 colon, 70 µM; in the assay on HS 578T breast, 38.3 µM; in the assay with IGROV1 ovarian, 36.7 µM; in the assay with NCI-H460 lung it was 44.3 µM. Further, the TGI stood at 34.3 µM in the assay with NCI/ADR-RES ovarian, 40.6 µM with PC-3 prostate, 76.7 µM in the assay with SK-OV-3 ovarian and 37 µM with UACC-62 melanoma.
As for `O=[N+]([O-])c1cc(-c2ccc([As](=O)(O)O)cc2)ccc1[As](=O)(O)O`, the TGI in the assay with CAKI-1 renal, with HCT-15 colon, with HS 578T breast, in the assay on IGROV1 ovarian, with NCI-H460 lung and in the assay on NCI/ADR-RES ovarian was > 100 µM throughout. In addition, the TGI in the assay with PC-3 prostate and in the assay on UACC-62 melanoma was > 100 µM throughout.
With `Nc1nc(Cl)cc(OCC2(CO)CCCCC2)n1`, the TGI with HCC-2998 colon was 82.1 µM; with HCT-15 colon it was > 100 µM; in the assay with HS 578T breast it was > 100 µM; in the assay on IGROV1 ovarian it was > 100 µM; in the assay with NCI-H460 lung it was > 100 µM; in the assay on NCI/ADR-RES ovarian it was > 100 µM. Also, the TGI in the assay with PC-3 prostate was > 100 µM.
For the compound `C#CCN(Cc1ccc2nc(-c3ccccc3)c(Cl)nc2c1)c1ccc(Cl)c(Cl)c1`, the TGI in the assay on CAKI-1 renal was > 100 µM; in the assay with HCC-2998 colon, 96.8 µM; in the assay on HCT-15 colon, > 100 µM; with IGROV1 ovarian, > 100 µM; in the assay on NCI-H460 lung, > 100 µM; with SK-OV-3 ovarian, > 100 µM. Further, in the assay with UACC-62 melanoma, the TGI was > 100 µM.
Consider `O=C(/C=C/c1cc2ccccc2[nH]c1=O)c1ccc(O)cc1`, for which the GI50 with CAKI-1 renal is 4.71 µM; with HCC-2998 colon, 4.13 µM; in the assay with HCT-15 colon, 2.71 µM; in the assay with HS 578T breast, 6.14 µM; in the assay on IGROV1 ovarian, 4.35 µM; with NCI-H460 lung, 2.39 µM. Also, the GI50 in the assay on NCI/ADR-RES ovarian is 2.9 µM; with PC-3 prostate, 5.39 µM; with UACC-62 melanoma, 2.88 µM. The TGI with CAKI-1 renal is > 100 µM; with HCC-2998 colon, 16 µM; with HCT-15 colon it was 12.8 µM; in the assay with HS 578T breast, > 100 µM; with IGROV1 ovarian it was 45.1 µM; with NCI-H460 lung, 6.87 µM. For the same compound, the TGI with NCI/ADR-RES ovarian is > 100 µM; with PC-3 prostate it was 55.3 µM; with UACC-62 melanoma, 8.73 µM.
Consider `C[C@]12CC[C@@H]3c4cc(C=O)c(OCc5ccccc5)cc4CC[C@H]3[C@@H]1CCC2OCc1ccccc1` (some centres undefined), for which the TGI in the assay with CAKI-1 renal, with HCC-2998 colon, in the assay with HCT-15 colon, in the assay on HS 578T breast, in the assay with NCI-H460 lung and with NCI/ADR-RES ovarian was > 100 µM in each case. Besides, the TGI in the assay on PC-3 prostate, with SK-OV-3 ovarian and with UACC-62 melanoma was > 100 µM throughout.
`c1ccc(C2SCc3nc4ccccc4n32)cc1` (centres undefined): the TGI in the assay with CAKI-1 renal, in the assay on HCC-2998 colon, in the assay with HCT-15 colon, in the assay with IGROV1 ovarian, with NCI-H460 lung and in the assay with SK-OV-3 ovarian was > 100 µM each time. In addition, the TGI in the assay with UACC-62 melanoma is > 100 µM.
For the compound `CCN1CC2(CO)CCC(OC)C34C5CC6C(OC)CC(O)(C5C6OC)C(O)(C(OC)C23)C14` (centres undefined), the TGI in the assay on CAKI-1 renal, with HCC-2998 colon, with HCT-15 colon, in the assay with IGROV1 ovarian, in the assay with NCI-H460 lung and in the assay with NCI/ADR-RES ovarian was > 375 µM each time. Also, the TGI with SK-OV-3 ovarian and in the assay on UACC-62 melanoma was > 375 µM throughout.
For `CN1C(=O)c2c(c3c4ccccc4n(C)c3c3c2c2ccccc2n3C)C1=O`, the TGI in the assay with CAKI-1 renal, in the assay with HCC-2998 colon, with HCT-15 colon, in the assay with IGROV1 ovarian, in the assay on NCI-H460 lung and in the assay with NCI/ADR-RES ovarian was > 100 µM each time. The TGI with PC-3 prostate, in the assay with SK-OV-3 ovarian and in the assay with UACC-62 melanoma was > 100 µM throughout.
On to `COc1ccc(CNCCN2C(=O)c3ccc4c5c(ccc(c35)C2=O)C(=O)N(CCNCc2ccc(OC)c(OC)c2OC)C4=O)c(OC)c1OC`, for which the GI50 in the assay on HCC-2998 colon is 0.167 µM; with HS 578T breast, 0.985 µM; in the assay on SK-OV-3 ovarian it was 1.67 µM. In addition, the TGI with HCC-2998 colon was 0.59 µM; in the assay on HS 578T breast, 2.81 µM; in the assay on SK-OV-3 ovarian it was 50 µM.
In the case of `CN(C)CCNC(=O)c1cccc2c(NC(CCCN=C(N)N)C(=O)O)c3ccccc3nc12` (centres undefined), the TGI in the assay with HCT-15 colon was > 100 µM; with HS 578T breast, 33.2 µM; in the assay on IGROV1 ovarian, 64.7 µM; with NCI/ADR-RES ovarian, 25.1 µM; in the assay with PC-3 prostate, > 100 µM; in the assay on SK-OV-3 ovarian it was > 100 µM. For the same compound, the TGI with UACC-62 melanoma is 60 µM.
Regarding `C#CCN1C(=O)CN2C(Cl)(Cl)C2(c2ccccc2)c2cc(Cl)ccc21` (centres undefined), the TGI in the assay with CAKI-1 renal, in the assay on HCC-2998 colon, in the assay on HCT-15 colon and with NCI-H460 lung was > 100 µM throughout.
With `COC(=O)C12CCC(CC1=O)C2(C)C` (centres undefined), the TGI with HCC-2998 colon, with HCT-15 colon, with IGROV1 ovarian, in the assay on NCI-H460 lung, in the assay on SK-OV-3 ovarian and in the assay on UACC-62 melanoma was > 100 µM throughout.
